PubChem BioAssay AID328 (DTP/NCI, 2004)
“And” between values parts separate entries of the source, which are not always exact repeats. Equal entries are not always repeated. Toxic doses and inconclusive results are not listed.

System: BDF1 mice, P388 leukemia ip, median survival T/C
Test: NCI In Vivo Anticancer Drug Screen. Data for tumor model P388 Leukemia (intraperitoneal) in B6D2F1 (BDF1) mice
Conditions: endpoint: median survival time, higher = longer survival
Summary of the method: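 In tumour-bearing mice, survival after compound treatment is set against the vehicle group and given as a quotient.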

[1] = dose: 50.0 mg/kg/injection, schedule: Q01DX005 (ip), vehicle: saline with Tween-80
[2] = dose: 100.0 mg/kg/injection, schedule: Q01DX005 (ip), vehicle: saline with Tween-80
[3] = dose: 200.0 mg/kg/injection, schedule: Q01DX005 (ip), vehicle: saline with Tween-80
[4] = dose: 25.0 mg/kg/injection, schedule: Q01DX009 (ip), vehicle: Klucel (hydroxypropylcellulose) (HPC)
[5] = dose: 100.0 mg/kg/injection, schedule: Q01DX009 (ip), vehicle: Klucel (hydroxypropylcellulose) (HPC)
[6] = dose: 100.0 mg/kg/injection, schedule: Q04DX003 (ip), vehicle: Klucel (hydroxypropylcellulose) (HPC)
[7] = dose: 50.0 mg/kg/injection, schedule: Q01DX009 (ip), vehicle: saline with Tween-80
[8] = dose: 100.0 mg/kg/injection, schedule: Q01DX009 (ip), vehicle: saline with Tween-80
[9] = dose: 12.5 mg/kg/injection, schedule: Q01DX009 (ip), vehicle: water
[10] = dose: 25.0 mg/kg/injection, schedule: Q01DX009 (ip), vehicle: water
[11] = dose: 25.0 mg/kg/injection, schedule: Q04DX003 (ip), vehicle: water
[12] = dose: 50.0 mg/kg/injection, schedule: Q01DX009 (ip), vehicle: water
[13] = dose: 50.0 mg/kg/injection, schedule: Q04DX003 (ip), vehicle: water
[14] = dose: 100.0 mg/kg/injection, schedule: Q01DX009 (ip), vehicle: water
[15] = dose: 100.0 mg/kg/injection, schedule: Q04DX003 (ip), vehicle: water
[16] = dose: 100.0 mg/kg/injection, schedule: Q04DX003 (ip), vehicle: saline
[17] = dose: 100.0 mg/kg/injection, schedule: Q04DX003 (ip), vehicle: saline with Tween-80
[18] = dose: 200.0 mg/kg/injection, schedule: Q04DX003 (ip), vehicle: saline with Tween-80
[19] = dose: 50.0 mg/kg/injection, schedule: Q01DX009 (ip), vehicle: saline
[20] = dose: 100.0 mg/kg/injection, schedule: Q01DX009 (ip), vehicle: saline
[21] = dose: 200.0 mg/kg/injection, schedule: Q01DX009 (ip), vehicle: saline

## O=C1c2ccccc2C(=O)N1CN1CCN(c2ccc(F)cc2)CC1
[1]
  T/C: 103 % of control
[2]
  T/C: 94 % of control
[3]
  T/C: 103 % of control

## C1CCN(CC2CCCCN2)CC1 (stereo not drawn)
[4]
  T/C: 100 % of control
dose: 25.0 mg/kg/injection, schedule: Q04DX003 (ip), vehicle: Klucel (hydroxypropylcellulose) (HPC)
  T/C: 105 % of control
dose: 50.0 mg/kg/injection, schedule: Q01DX009 (ip), vehicle: Klucel (hydroxypropylcellulose) (HPC)
  T/C: 100 % of control
dose: 50.0 mg/kg/injection, schedule: Q04DX003 (ip), vehicle: Klucel (hydroxypropylcellulose) (HPC)
  T/C: 100 % of control
[5]
  T/C: 90 % of control
[6]
  T/C: 110 % of control

## COc1ccc(OCC(O)CN2CCN(c3ccc(Cl)cc3)CC2)cc1 (stereo not drawn)
dose: 6.25 mg/kg/injection, schedule: Q01DX009 (ip), vehicle: Klucel (hydroxypropylcellulose) (HPC)
  T/C: 100 % of control
dose: 12.5 mg/kg/injection, schedule: Q01DX009 (ip), vehicle: Klucel (hydroxypropylcellulose) (HPC)
  T/C: 95 % of control
[4]
  T/C: 86 % of control

## CCOP(=O)(OCC)SCSC(C)C
dose: 0.19 mg/kg/injection, schedule: Q01DX009 (ip), vehicle: Klucel (hydroxypropylcellulose) (HPC)
  T/C: 88 % of control
dose: 3.12 mg/kg/injection, schedule: Q01DX009 (ip), vehicle: Klucel (hydroxypropylcellulose) (HPC)
  T/C: 96 % of control

## O=C1C(CCO)SC(=S)N1c1ccccc1 (stereo not drawn)
[7]
  T/C: 106 % of control
[8]
  T/C: 103 % of control
dose: 200.0 mg/kg/injection, schedule: Q01DX009 (ip), vehicle: saline with Tween-80
  T/C: 102 % of control

## O=C(NCCNCc1ccccc1)c1ccccc1
[9]
  T/C: 96 % of control
dose: 12.5 mg/kg/injection, schedule: Q04DX003 (ip), vehicle: water
  T/C: 92 % of control
dose: 16.0 mg/kg/injection, schedule: Q01DX009 (ip), vehicle: water
  T/C: 100 % of control
[10]
  T/C: 99 % of control and 122 % of control
[11]
  T/C: 95 % of control and 99 % of control
dose: 40.0 mg/kg/injection, schedule: Q01DX009 (ip), vehicle: water
  T/C: 113 % of control
[12]
  T/C: 103 % of control
[13]
  T/C: 97 % of control
[14]
  T/C: 90 % of control
[15]
  T/C: 95 % of control and 99 % of control

## CC(C)C(=O)c1ccc(-c2ccccc2)cc1
[9]
  T/C: 105 % of control
[10]
  T/C: 113 % of control
[11]
  T/C: 97 % of control
[12]
  T/C: 102 % of control
[13]
  T/C: 101 % of control
[14]
  T/C: 111 % of control
[15]
  T/C: 97 % of control
dose: 200.0 mg/kg/injection, schedule: Q01DX009 (ip), vehicle: water
  T/C: 102 % of control
dose: 200.0 mg/kg/injection, schedule: Q04DX003 (ip), vehicle: water
  T/C: 92 % of control
dose: 400.0 mg/kg/injection, schedule: Q01DX009 (ip), vehicle: water
  T/C: 119 % of control
dose: 400.0 mg/kg/injection, schedule: Q04DX003 (ip), vehicle: water
  T/C: 89 % of control

## CC(C)CC(C)CC(O)CC(C)C (stereo not drawn)
[5]
  T/C: 110 % of control
[6]
  T/C: 100 % of control
dose: 200.0 mg/kg/injection, schedule: Q01DX009 (ip), vehicle: Klucel (hydroxypropylcellulose) (HPC)
  T/C: 100 % of control
dose: 200.0 mg/kg/injection, schedule: Q04DX003 (ip), vehicle: Klucel (hydroxypropylcellulose) (HPC)
  T/C: 100 % of control
dose: 400.0 mg/kg/injection, schedule: Q01DX009 (ip), vehicle: Klucel (hydroxypropylcellulose) (HPC)
  T/C: 115 % of control
dose: 400.0 mg/kg/injection, schedule: Q04DX003 (ip), vehicle: Klucel (hydroxypropylcellulose) (HPC)
  T/C: 95 % of control

## CCCCCCCCOP(=O)(N1CC1C)N1CC1C (stereo not drawn)
[16]
  T/C: 154 % of control

## CNC(=N)c1ccc(NC(=N)c2ccc(NC(=N)c3ccc(NC(=O)Nc4ccc(C(=N)NC)cc4)cc3)cc2)cc1
dose: 1.1 mg/kg/injection, schedule: Q04DX003 (ip), vehicle: saline
  T/C: 122 % of control
dose: 2.4 mg/kg/injection, schedule: Q01DX009 (ip), vehicle: saline
  T/C: 170 % of control
dose: 3.6 mg/kg/injection, schedule: Q01DX009 (ip), vehicle: saline
  T/C: 187 % of control
dose: 5.0 mg/kg/injection, schedule: Q01DX009 (ip), vehicle: saline
  T/C: 154 % of control and 157 % of control
dose: 5.3 mg/kg/injection, schedule: Q01DX009 (ip), vehicle: saline
  T/C: 195 % of control
dose: 5.3 mg/kg/injection, schedule: Q04DX003 (ip), vehicle: saline
  T/C: 154 % of control
dose: 6.25 mg/kg/injection, schedule: Q01DX009 (ip), vehicle: saline
  T/C: 161 % of control
dose: 8.0 mg/kg/injection, schedule: Q01DX009 (ip), vehicle: saline
  T/C: 165 % of control
dose: 12.0 mg/kg/injection, schedule: Q01DX009 (ip), vehicle: saline
  T/C: 188 % of control
dose: 12.0 mg/kg/injection, schedule: Q04DX003 (ip), vehicle: saline
  T/C: 154 % of control
dose: 12.5 mg/kg/injection, schedule: Q01DX009 (ip), vehicle: saline
  T/C: 230 % of control
dose: 18.0 mg/kg/injection, schedule: Q01DX009 (ip), vehicle: saline
  T/C: 230 % of control
dose: 18.0 mg/kg/injection, schedule: Q04DX003 (ip), vehicle: saline
  T/C: 187 % of control
dose: 25.0 mg/kg/injection, schedule: Q04DX003 (ip), vehicle: saline
  T/C: 250 % of control

## CCC(=O)Oc1c(Cl)c(Cl)c(C#N)c(Cl)c1Cl
[17]
  T/C: 108 % of control
[18]
  T/C: 116 % of control

## Clc1nc(NCc2ccccc2)c2cn[nH]c2n1
dose: 25.0 mg/kg/injection, schedule: Q01DX009 (ip), vehicle: saline with Tween-80
  T/C: 91 % of control
[7]
  T/C: 91 % of control
[8]
  T/C: 91 % of control

## CN1C(=O)N(C)C2(C=Cc3cc([N+](=O)[O-])ccc3O2)N(C)C1=O
[19]
  T/C: 99 % of control
[20]
  T/C: 101 % of control
[21]
  T/C: 99 % of control

## CCOC(=O)CCCc1ccccc1
[17]
  T/C: 113 % of control
[18]
  T/C: 100 % of control
dose: 400.0 mg/kg/injection, schedule: Q04DX003 (ip), vehicle: saline with Tween-80
  T/C: 100 % of control

## Nc1nc2nc(N=Nc3ccccc3)[nH]c2c(=O)[nH]1
[1]
  T/C: 100 % of control
[2]
  T/C: 91 % of control
[3]
  T/C: 110 % of control

## CSc1ccc(C(O)CNC(C)C)cc1C (stereo not drawn)
[19]
  T/C: 100 % of control
[20]
  T/C: 100 % of control

## CC(C)CCCCCCCCCCCCC(=O)NCC(=O)NC1C(C)OC(Nc2ncnc3nc[nH]c23)C(O)C1O (stereo not drawn)
dose: 432.0 micrograms/kg/injection, schedule: Q04DX003 (ip), vehicle: saline
  T/C: 110 % of control

## CC1(C)COCN1CN1COCC1(C)C
dose: 50.0 mg/kg/injection, schedule: Q04DX003 (ip), vehicle: saline
  T/C: 150 % of control
[16]
  T/C: 155 % of control

## O=C(CI)Nc1ccc(Br)cc1
dose: 8.75 mg/kg/injection, schedule: Q01DX009 (ip), vehicle: Klucel (hydroxypropylcellulose) (HPC)
  T/C: 104 % of control
dose: 17.5 mg/kg/injection, schedule: Q01DX009 (ip), vehicle: Klucel (hydroxypropylcellulose) (HPC)
  T/C: 104 % of control
dose: 26.25 mg/kg/injection, schedule: Q04DX003 (ip), vehicle: Klucel (hydroxypropylcellulose) (HPC)
  T/C: 90 % of control
dose: 35.0 mg/kg/injection, schedule: Q01DX009 (ip), vehicle: Klucel (hydroxypropylcellulose) (HPC)
  T/C: 104 % of control

## CCC(C)C(O)C(C(=O)O)C1CCCCC1 (stereo not drawn)
[1]
  T/C: 100 % of control
[2]
  T/C: 95 % of control
[3]
  T/C: 86 % of control

## CCOC(=O)/C(C#N)=C/c1c(-c2ccccc2)nn2ccccc12
[7]
  T/C: 96 % of control
[8]
  T/C: 91 % of control

## CCB1OCC2OB(CC)OC2C2OB(CC)OC2CO1 (stereo not drawn)
[19]
  T/C: 100 % of control
[20]
  T/C: 97 % of control
[21]
  T/C: 93 % of control

## CC(N)c1ccccc1 (stereo not drawn) (tested in a mixture with another compound)
[19]
  T/C: 96 % of control
[20]
  T/C: 104 % of control
[21]
  T/C: 95 % of control
